Laboratory results as given in patent publication US8481750B2 (Boehringer Ingelheim International GmbH, priority 2009, dated 2013).

Molecular target: LFA-1 binding to ICAM-1 (Homo sapiens, UniProt P05107+P20701)
Assay: Inhibition of LFA-1 binding to ICAM-1 (LFA-1/Biotin-sICAM-1 AlphaScreen molecular assay)
Settings: highest compound concentration 1 μM in 1% DMSO, 37° C., 90 minutes
Procedure, shortened: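 AlphaScreen binding of purified LFA-1 to biotinylated sICAM-1 in DPBS with Ca/Mg, 2 mM MgCl2, 0.1% BSA, pH 7.1; compound top concentration 1 μM in 1% DMSO, 90 min at 37 °C. Detection with TS2/4 anti-LFA-1 acceptor beads (10 μg/mL final) and streptavidin donor beads (15 μg/mL final), room temperature in the dark.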

LFA-1 binding to ICAM-1, sequence (P20701 26-1170): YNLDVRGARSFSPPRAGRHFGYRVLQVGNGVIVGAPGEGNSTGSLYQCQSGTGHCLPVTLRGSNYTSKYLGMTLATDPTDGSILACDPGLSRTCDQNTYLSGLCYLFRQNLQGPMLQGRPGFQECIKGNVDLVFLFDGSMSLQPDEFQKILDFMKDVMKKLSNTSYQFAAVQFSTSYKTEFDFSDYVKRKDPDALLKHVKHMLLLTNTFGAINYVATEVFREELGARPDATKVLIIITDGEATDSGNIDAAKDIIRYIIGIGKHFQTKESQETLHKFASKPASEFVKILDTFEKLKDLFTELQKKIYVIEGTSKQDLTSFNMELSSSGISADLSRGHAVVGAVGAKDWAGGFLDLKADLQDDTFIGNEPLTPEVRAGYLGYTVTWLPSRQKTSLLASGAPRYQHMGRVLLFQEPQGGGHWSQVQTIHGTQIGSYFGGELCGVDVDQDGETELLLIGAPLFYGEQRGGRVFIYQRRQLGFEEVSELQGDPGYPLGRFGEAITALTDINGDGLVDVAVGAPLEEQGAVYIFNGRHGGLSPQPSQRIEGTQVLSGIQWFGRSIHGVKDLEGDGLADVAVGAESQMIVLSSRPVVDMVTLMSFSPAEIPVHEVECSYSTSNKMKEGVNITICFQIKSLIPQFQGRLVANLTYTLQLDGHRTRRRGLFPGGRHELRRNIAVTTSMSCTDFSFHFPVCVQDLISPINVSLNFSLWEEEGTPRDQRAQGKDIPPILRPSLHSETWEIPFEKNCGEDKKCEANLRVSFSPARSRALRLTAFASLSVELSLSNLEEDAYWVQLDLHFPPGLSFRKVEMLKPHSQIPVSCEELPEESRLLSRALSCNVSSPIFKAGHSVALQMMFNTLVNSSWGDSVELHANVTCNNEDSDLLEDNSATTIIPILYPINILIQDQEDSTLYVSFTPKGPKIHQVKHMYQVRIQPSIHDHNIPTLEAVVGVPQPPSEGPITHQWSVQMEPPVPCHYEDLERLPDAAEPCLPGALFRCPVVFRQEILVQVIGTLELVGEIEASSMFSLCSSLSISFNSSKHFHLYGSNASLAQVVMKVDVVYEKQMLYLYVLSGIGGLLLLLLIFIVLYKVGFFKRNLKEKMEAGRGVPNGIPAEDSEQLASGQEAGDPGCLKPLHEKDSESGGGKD
LFA-1 binding to ICAM-1, sequence (P05107 23-769): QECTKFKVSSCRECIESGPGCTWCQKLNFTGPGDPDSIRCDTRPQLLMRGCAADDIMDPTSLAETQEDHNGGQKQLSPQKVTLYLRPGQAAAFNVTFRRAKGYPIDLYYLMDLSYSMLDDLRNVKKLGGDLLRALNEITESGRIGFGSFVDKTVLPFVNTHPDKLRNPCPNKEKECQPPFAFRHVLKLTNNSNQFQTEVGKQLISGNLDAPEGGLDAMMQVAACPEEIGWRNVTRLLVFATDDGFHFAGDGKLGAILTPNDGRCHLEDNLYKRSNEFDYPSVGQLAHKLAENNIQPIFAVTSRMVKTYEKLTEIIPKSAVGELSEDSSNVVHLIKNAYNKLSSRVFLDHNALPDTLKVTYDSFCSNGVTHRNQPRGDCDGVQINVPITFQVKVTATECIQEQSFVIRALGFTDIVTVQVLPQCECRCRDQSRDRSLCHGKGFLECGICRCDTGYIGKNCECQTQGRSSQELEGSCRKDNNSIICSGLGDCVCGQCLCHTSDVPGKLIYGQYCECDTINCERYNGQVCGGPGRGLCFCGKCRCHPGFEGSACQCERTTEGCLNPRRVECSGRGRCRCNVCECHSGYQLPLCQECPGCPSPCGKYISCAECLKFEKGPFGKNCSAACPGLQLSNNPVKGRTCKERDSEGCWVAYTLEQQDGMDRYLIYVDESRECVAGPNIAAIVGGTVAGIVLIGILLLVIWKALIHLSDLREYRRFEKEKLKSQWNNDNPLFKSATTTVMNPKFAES

SMILES | IC50 [pM]
C[C@@]1(Cc2ccc(C#N)cc2)C(=O)N(c2cc(Cl)cc(Cl)c2)c2ncc(C(=O)NC3(C(=O)NC4(c5ccc(C(=O)NCC(O)CO)cn5)CC4)CC3)n21 (stereo partly shown) [compound 133] | 1400
C[C@@]1(Cc2ccc(C#N)cc2)C(=O)N(c2cc(Cl)cc(Cl)c2)c2ncc(C(=O)NC3(C(=O)NC4(c5ccc(C(=O)NCCc6ccccc6)cn5)CC4)CC3)n21 [compound 134] | 2200
CC(NC(=O)c1ccnc(C2(NC(=O)C3(NC(=O)c4cnc5n4[C@](C)(Cc4ccc(C#N)cc4)C(=O)N5c4cc(Cl)cc(Cl)c4)CC3)CC2)c1)c1cccnc1 (stereo partly shown) [compound 139] | 990
CNC(=O)c1ccc(C2(NC(=O)C3(NC(=O)c4cnc5n4[C@](C)(Cc4ccc(C#N)cc4)C(=O)N5c4cc(Cl)cc(Cl)c4)CC3)CC2)nc1 [compound 140] | 1500
C[C@@]1(Cc2ccc(C#N)cc2)C(=O)N(c2cc(Cl)cc(Cl)c2)c2ncc(C(=O)NC3(C(=O)NC4(c5cc(C(=O)NCC6CC6)ccn5)CC4)CC3)n21 [compound 142] | 1300
CC(O)CNC(=O)c1ccnc(C2(NC(=O)C3(NC(=O)c4cnc5n4[C@](C)(Cc4ccc(C#N)cc4)C(=O)N5c4cc(Cl)cc(Cl)c4)CC3)CC2)c1 (stereo partly shown) [compound 146] | 980
C[C@@]1(Cc2ccc(C#N)cc2)C(=O)N(c2cc(Cl)cc(Cl)c2)c2ncc(C(=O)NC3(C(=O)NC4(c5ccc(C(=O)N6CCC(C(N)=O)CC6)cn5)CC4)CC3)n21 [compound 147] | 1900
C[C@@]1(Cc2ccc(C#N)cc2)C(=O)N(c2cc(Cl)cc(Cl)c2)c2ncc(C(=O)NC3(C(=O)NC4(c5ccc(C(N)=O)cn5)CC4)CC3)n21 [compound 148] | 1400
CC(CO)NC(=O)c1cccc(C2(NC(=O)C3(NC(=O)c4cnc5n4[C@](C)(Cc4ccc(C#N)cc4)C(=O)N5c4cc(Cl)cc(Cl)c4)CC3)CC2)n1 (stereo partly shown) [compound 150] | 810
CC(NC(=O)c1cccc(C2(NC(=O)C3(NC(=O)c4cnc5n4[C@](C)(Cc4ccc(C#N)cc4)C(=O)N5c4cc(Cl)cc(Cl)c4)CC3)CC2)n1)c1ccncc1 (stereo partly shown) [compound 151] | 1300
C[C@@]1(Cc2ccc(C#N)cc2)C(=O)N(c2cc(Cl)cc(Cl)c2)c2ncc(C(=O)NC3(C(=O)NC4(c5ccc(C(=O)N6CCN(S(C)(=O)=O)CC6)cn5)CC4)CC3)n21 [compound 153] | 1500
CN(CCO)C(=O)c1ccc(C2(NC(=O)C3(NC(=O)c4cnc5n4[C@](C)(Cc4ccc(C#N)cc4)C(=O)N5c4cc(Cl)cc(Cl)c4)CC3)CC2)nc1 [compound 154] | 1000
CN1CCN(C(=O)c2ccnc(C3(NC(=O)C4(NC(=O)c5cnc6n5[C@](C)(Cc5ccc(C#N)cc5)C(=O)N6c5cc(Cl)cc(Cl)c5)CC4)CC3)c2)CC1 [compound 156] | 1100
CC(=O)NC1CCN(C(=O)c2ccc(C3(NC(=O)C4(NC(=O)c5cnc6n5[C@](C)(Cc5ccc(C#N)cc5)C(=O)N6c5cc(Cl)cc(Cl)c5)CC4)CC3)nc2)C1 (stereo partly shown) [compound 158] | 900
C[C@@]1(Cc2ccc(C#N)cc2)C(=O)N(c2cc(Cl)cc(Cl)c2)c2ncc(C(=O)NC3(C(=O)NC4(c5cccc(C(=O)NCc6cccnc6)n5)CC4)CC3)n21 [compound 162] | 2300
C[C@@]1(Cc2ccc(C#N)cc2)C(=O)N(c2cc(Cl)c(F)c(Cl)c2)c2ncc(C(=O)NC3(C(=O)NC4(c5ccc(C(N)=O)cn5)CC4)CC3)n21 [compound 164] | 820
C[C@@H](NC(=O)c1ccnc(C2(NC(=O)C3(NC(=O)c4cnc5n4[C@](C)(Cc4ccc(C#N)cc4)C(=O)N5c4cc(Cl)cc(Cl)c4)CC3)CC2)c1)C(N)=O [compound 166] | 3000
C[C@@]1(Cc2ccc(C#N)cc2)C(=O)N(c2cc(Cl)cc(Cl)c2)c2ncc(C(=O)NC3(C(=O)NC4(c5cc(C(=O)N6CC[C@@H](O)C6)ccn5)CC4)CC3)n21 [compound 168] | 3400
C[C@@]1(Cc2ccc(C#N)cc2)C(=O)N(c2cc(Cl)cc(Cl)c2)c2ncc(C(=O)NC3(C(=O)NC4(c5ccc(C(=O)NCCc6ccncc6)cn5)CC4)CC3)n21 [compound 169] | 2500
CC(=O)N1CCN(C(=O)c2ccc(C3(NC(=O)C4(NC(=O)c5cnc6n5[C@](C)(Cc5ccc(C#N)cc5)C(=O)N6c5cc(Cl)cc(Cl)c5)CC4)CC3)nc2)CC1 [compound 171] | 1300
C[C@@]1(Cc2ccc(C#N)cc2)C(=O)N(c2cc(Cl)cc(Cl)c2)c2ncc(C(=O)NC3(C(=O)NC4(c5cc(C(=O)NCC(N)=O)ccn5)CC4)CC3)n21 [compound 172] | 840

The remaining molecules from weak to strong by IC50, led by results:

IC50 [pM] | SMILES
800 | C[C@H](CO)NC(=O)c1ccc(C2(NC(=O)C3(NC(=O)c4cnc5n4[C@](C)(Cc4ccc(C#N)cc4)C(=O)N5c4cc(Cl)cc(Cl)c4)CC3)CC2)nc1 [compound 141]
790 | C[C@@]1(Cc2ccc(C#N)cc2)C(=O)N(c2cc(Cl)cc(Cl)c2)c2ncc(C(=O)NC3(C(=O)NC4(c5cc(C(=O)N6CCCC6)ccn5)CC4)CC3)n21 [compound 135]
750 | C[C@@]1(Cc2ccc(C#N)cc2)C(=O)N(c2cc(Cl)cc(Cl)c2)c2ncc(C(=O)NC3(C(=O)NC4(c5cccc(C(=O)N6CCCC(CO)C6)n5)CC4)CC3)n21 (stereo partly shown) [compound 161]
740 | C[C@@]1(Cc2ccc(C#N)cc2)C(=O)N(c2cc(Cl)cc(Cl)c2)c2ncc(C(=O)NC3(C(=O)NC4(c5ccc(C(=O)N6CC[C@H](O)C6)cn5)CC4)CC3)n21 [compound 130]
740 | CC(NC(=O)c1ccc(C2(NC(=O)C3(NC(=O)c4cnc5n4[C@](C)(Cc4ccc(C#N)cc4)C(=O)N5c4cc(Cl)cc(Cl)c4)CC3)CC2)nc1)c1ccccn1 (stereo partly shown) [compound 155]
680 | C[C@@]1(Cc2ccc(C#N)cc2)C(=O)N(c2cc(Cl)cc(Cl)c2)c2ncc(C(=O)NC3(C(=O)NC4(c5ccc(C(=O)N6CCCCC6CO)cn5)CC4)CC3)n21 (stereo partly shown) [compound 137]
670 | CCN(CC)C(=O)c1ccnc(C2(NC(=O)C3(NC(=O)c4cnc5n4[C@](C)(Cc4ccc(C#N)cc4)C(=O)N5c4cc(Cl)cc(Cl)c4)CC3)CC2)c1 [compound 138]
650 | C[C@@]1(Cc2ccc(C#N)cc2)C(=O)N(c2cc(Cl)cc(Cl)c2)c2ncc(C(=O)NC3(C(=O)NC4(c5ccc(C(=O)N6CCC[C@@H]6C(N)=O)cn5)CC4)CC3)n21 [compound 163]
620 | CC(C)(NC(=O)c1ccc(C2(NC(=O)C3(NC(=O)c4cnc5n4[C@](C)(Cc4ccc(C#N)cc4)C(=O)N5c4cc(Cl)cc(Cl)c4)CC3)CC2)nc1)c1ccccc1 [compound 152]
560 | C[C@@]1(Cc2ccc(C#N)cc2)C(=O)N(c2cc(Cl)cc(Cl)c2)c2ncc(C(=O)NC3(C(=O)NC4(c5cccc(C(=O)N6CCOCC6)n5)CC4)CC3)n21 [compound 145]
550 | C[C@@]1(Cc2ccc(C#N)cc2)C(=O)N(c2cc(Cl)cc(Cl)c2)c2ncc(C(=O)NC3(C(=O)NC4(c5cc(C(=O)NC(CO)CO)ccn5)CC4)CC3)n21 [compound 129]
530 | C[C@@]1(Cc2ccc(C#N)cc2)C(=O)N(c2cc(Cl)cc(Cl)c2)c2ncc(C(=O)NC3(C(=O)NC4(c5cccc(C(=O)N6CC[C@H](O)C6)n5)CC4)CC3)n21 [compound 143]
520 | CN1CCN(C(=O)c2cccc(C3(NC(=O)C4(NC(=O)c5cnc6n5[C@](C)(Cc5ccc(C#N)cc5)C(=O)N6c5cc(Cl)cc(Cl)c5)CC4)CC3)n2)CC1 [compound 157]
450 | C[C@@]1(Cc2ccc(C#N)cc2)C(=O)N(c2cc(Cl)cc(Cl)c2)c2ncc(C(=O)NC3(C(=O)NC4(c5cc(C(=O)NCC(=O)O)ccn5)CC4)CC3)n21 [compound 131]
420 | C[C@@]1(Cc2ccc(C#N)cc2)C(=O)N(c2cc(Cl)cc(Cl)c2)c2ncc(C(=O)NC3(C(=O)NC4(c5cc(C(=O)NCCn6ccnc6)ccn5)CC4)CC3)n21 [compound 159]
410 | CC(C)(NC(=O)c1cccc(C2(NC(=O)C3(NC(=O)c4cnc5n4[C@](C)(Cc4ccc(C#N)cc4)C(=O)N5c4cc(Cl)cc(Cl)c4)CC3)CC2)n1)c1ccccc1 [compound 167]
370 | CC(=O)NCCNC(=O)c1ccnc(C2(NC(=O)C3(NC(=O)c4cnc5n4[C@](C)(Cc4ccc(C#N)cc4)C(=O)N5c4cc(Cl)cc(Cl)c4)CC3)CC2)c1 [compound 132]
370 | CC(NC(=O)c1ccc(C2(NC(=O)C3(NC(=O)c4cnc5n4[C@](C)(Cc4ccc(C#N)cc4)C(=O)N5c4cc(Cl)cc(Cl)c4)CC3)CC2)nc1)c1ccccn1 (stereo partly shown) [compound 160]
340 | C[C@@]1(Cc2ccc(C#N)cc2)C(=O)N(c2cc(Cl)cc(Cl)c2)c2ncc(C(=O)NC3(C(=O)NC4(c5cc(C(=O)NCCc6ccncc6)ccn5)CC4)CC3)n21 [compound 144]
300 | C[C@H](NC(=O)c1cccc(C2(NC(=O)C3(NC(=O)c4cnc5n4[C@](C)(Cc4ccc(C#N)cc4)C(=O)N5c4cc(Cl)cc(Cl)c4)CC3)CC2)n1)c1ccccc1 [compound 165]
290 | CC(NC(=O)c1ccnc(C2(NC(=O)C3(NC(=O)c4cnc5n4[C@](C)(Cc4ccc(C#N)cc4)C(=O)N5c4cc(Cl)cc(Cl)c4)CC3)CC2)c1)c1ccccn1 (stereo partly shown) [compound 149]
280 | C[C@@]1(Cc2ccc(C#N)cc2)C(=O)N(c2cc(Cl)cc(Cl)c2)c2ncc(C(=O)NC3(C(=O)NC4(c5cccc(C(=O)N6CCC(C(N)=O)CC6)n5)CC4)CC3)n21 [compound 170]
